According to patent publication US20100298377A1, “NOVEL SUBSTITUTED INDAZOLES, THE PREPARATION THEREOF AND USE OF SAME IN THERAPEUTICS” (SANOFI-AVENTIS, priority 2007, published 2010):

Experiments:
[1] = tested on: MIA PaCa-2 cells (human pancreatic carcinoma cells); test: Proliferation of MIA PaCa-2 cells, intracellular ATP, CellTiter-Glo test; format: cell-based; conditions: 96 hours
Text: (§1) b. Study of the Proliferation of Human Tumoral MIA PaCa-2, C-433, LnCaP and MCF7 Cells via Assay of the Intracellular ATP Using the Celltiter-Glo™ Test
(§2) The kit CellTiter-Glo™ for measuring cell viability via luminescence ([…]) is a homogeneous method for determining the number of viable cells in culture, based on quantification of the ATP present in the cells, and which indicates the presence of metabolically active cells.
(§3) The cell lines used in this test were the following: MIA PaCa-2 cells (human pancreatic carcinoma cells, ATCC, CRL-1420), C-433 cells (human Ewing sarcoma cells, DSMZ, ACC 268), LNCaP clone FGC cells (human prostate carcinoma cells, ATCC, CRL-1740), MCF7 cells (human breast carcinoma cells, ECACC, #86012803). The cells MIAPaCa-2 and LNCaP were cultured in D-MEM culture medium (Invitrogen Gibco, #419656-039) containing 10% foetal calf serum (FCS, Invitrogen Gibco, #10500-064) and 2 mM L-Glutamine (Invitrogen Gibco, #25030-024); the C-433 cells were cultured in MCCoy's 5A culture medium (Invitrogen Gibco, #26600-023)/RPMI 1640 (Invitrogen Gibco, #31870-025) (50/50) containing 10% FCS and 2 mM L-glutamine; the MCF7 cells were cultured in EMEM culture medium (EMEM, Biowhittaker, Lonza, #BE12-662F) containing 10% FCS and 2 mM L-Glutamine.
(§4) Evaluation of the Cell Viability via Luminescence Measurement: Celltiter-Glo™ Test
(§5) On day 1, the cells were inoculated at 1000 (C-433), 2500 (MCF7) and 10000 (LNCaP and MIA PaCa-2) cells per well in black-bottomed 96-well microplates (NUNC fluoronunc, Fisherbioblock 2311K) in 135 μl of whole culture medium and incubated at 37° C., 5% CO2, for 3 to 6 hours. The cells were then incubated with increasing concentrations of molecules diluted in dimethyl sulfoxide (DMSO, Sigma D2650). The molecules were added in a volume of 15 μl of a 10-fold concentrated solution in a final volume of 150 μl, the final percentage of DMSO being 0.1%. The cells were incubated at 37° C., 5% CO2, for 96 hours. After 4 days of treatment with the molecules, the CellTiter-Glo™ was performed by following the manufacturer's instructions (Kit Celltiter-Glo Luminescent, PROMEGA #G7571). Briefly, the cell plates were equilibrated for about 30 minutes at RT and 100 μl per well of Celltiter-Glo reagent were added. The cells were incubated for 1 hour at RT for lysis of the cells and stabilization of the signal. The intracellular ATP was quantified by measuring the luminescence in rlu units (relative luminescence units), 96 hours after initiation of the treatment, using a luminescence counter (Wallac). The tests were performed in six replicates.
(§6) i) the mean±s.e.m. of each series of well replicates was calculated;
(§7) ii) the maximum response is given by positive control wells containing untreated cells; this control was performed in 12 replicates;
(§8) iii) the minimum response is given by cell-free and untreated negative control wells; this control was performed in 6 replicates;
(§9) iv) using these maximum (100%) and minimum (0%) response values, respectively, the data were normalized to give a percentage relative to the maximum response;
(§10) The IC50 values were calculated by […] with the XLfit software (IDBS, UK) using formula 205.

[2] = tested on: C-433 cells (human Ewing sarcoma cells); test: Proliferation of C-433 cells, intracellular ATP, CellTiter-Glo test; format: cell-based; conditions: Homo sapiens, 96 hours
Text: as §1, §2, §3, §4, §5, §6, §7, §8, §9, §10

[3] = tested on: LNCaP clone FGC cells (human prostate carcinoma cells); test: Proliferation of LNCaP cells, intracellular ATP, CellTiter-Glo test; format: cell-based; conditions: Homo sapiens, LNCaP-Clone-FGC, 96 hours
Text: as §1, §2, §3, §4, §5, §6, §7, §8, §9, §10

[4] = tested on: MCF7 cells (human breast carcinoma cells); test: Proliferation of MCF7 cells, intracellular ATP, CellTiter-Glo test; format: cell-based; conditions: Homo sapiens, MCF7, 96 hours
Text: as §1, §2, §3, §4, §5, §6, §7, §8, §9, §10

For `O=C(Nc1ccc2[nH]ncc2c1)N[C@@H](c1cc(F)cc(Cl)c1)[C@@H]1CCCCN1` [Ex 3, 1-{(S)-(3-Chloro-5-fluorophenyl)[(2S)-piperid-2-yl]methyl}-3-(1H-indazol-5-yl)urea], the IC50 [1] was 10 µM, the IC50 [2] was 0.63 µM and the IC50 [3] was 0.28 µM. For the same compound, the IC50 [4] was 1.1 µM.

For `O=C(Nc1ccc2[nH]ncc2c1)N[C@@H](c1ccc(Cl)c(Cl)c1)[C@@H]1CCCCN1` [Ex 4, 1-{(S)-(3,4-Dichlorophenyl)[(2S)-piperid-2-yl]methyl}-3-(1H-indazol-5-yl)urea], the IC50 [1] was 3.42 µM, the IC50 [2] was 0.68 µM and the IC50 [3] was 1.2 µM. The IC50 [4] was 2.7 µM and the melting point was 216 °C.

Work on `O=C(Nc1ccc2[nH]ncc2c1)NC(c1cc(F)cc(Cl)c1)C1CCCCN1` (stereo not drawn) [Ex 5, 1-[(3-Chloro-5-fluorophenyl)(piperid-2-yl)methyl]-3-(1H-indazol-5-yl)urea] yielded an IC50 [1] of 7.1 µM, an IC50 [4] of 1.42 µM and a melting point of 185 °C.

In the case of `CN1CCCCC1C(NC(=O)Nc1ccc2[nH]ncc2c1)c1cc(F)cc(Cl)c1` (stereo not drawn) [Ex 11, 1-[(3-Chloro-5-fluorophenyl)(1-methylpiperid-2-yl)methyl]-3-(1H-indazol-5-yl)urea], the IC50 [1] is reported as > 10 µM.

For `CN1CCCCC1C(NC(=O)Nc1ccc2[nH]nc(-c3ccncc3)c2c1)c1ccccc1` [Ex 13, 1-[(1-Methylpiperid-2-yl)(phenyl)methyl]-3-(3-pyrid-4-yl-1H-indazol-5-yl)urea((S,2S),(R,2R))], the IC50 [1] was 1.45 µM.

`Cc1n[nH]c2ccc(NC(=O)NC(c3ccccc3)C3CCCCN3C)cc12` [Ex 18, 3-Methyl-5-({[(1-methylpiperid-2-yl)(phenyl)methyl]carbamoyl}amino)-1H-indazole ((S,2S),(R,2R))] showed an IC50 [1] of 6.1 µM, an IC50 [3] of 1.05 µM and an IC50 [4] of 5.8 µM.

Work on `CN1CCCCC1C(NC(=O)Nc1cc(F)c2[nH]ncc2c1)c1ccccc1` [Ex 21, 1-(7-Fluoro-1H-indazol-5-yl)-3-[(1-methylpiperid-2-yl)(phenyl)methyl]urea((S,2S),(R,2R))] yielded an IC50 [3] of 0.861 µM.

In the case of `CN1CCCCC1C(NC(=O)Nc1ccc2[nH]nc(C#Cc3ccc(F)cc3)c2c1)c1ccccc1` [Ex 24, 1-{3-[(4-Fluorophenyl)ethynyl]-1H-indazol-5-yl}-3-[(1-methylpiperid-2-yl)(phenyl)methyl]urea((S,2S),(R,2R))], the IC50 [1] is reported as 1.3 µM.

Work on `CN1CCCCC1C(NC(=O)Nc1ccc2[nH]nc(C#Cc3cccnc3)c2c1)c1ccccc1` [Ex 25, 1-[(1-Methylpiperid-2-yl)(phenyl)methyl]-3-[3-(pyrid-3-ylethynyl)-1H-indazol-5-yl]urea((S,2S),(R,2R))] yielded an IC50 [2] of 0.288 µM, an IC50 [3] of 0.611 µM and an IC50 [4] of 1.29 µM.

In the case of `S=C(Nc1ccc2[nH]ncc2c1)N[C@@H](c1ccc(Cl)c(Cl)c1)[C@@H]1CCCCN1` [Ex 31, 1-{(S)-(3,4-Dichlorophenyl)[(2S)-piperid-2-yl]methyl}-3-(1H-indazol-5-yl)thiourea], the IC50 [1] is reported as 6.25 µM, the IC50 [3] is reported as 2.94 µM and the IC50 [4] is reported as 4.45 µM.

Work on `O=C(Nc1ccc2[nH]ncc2c1)OC(c1cc(Cl)cc(Cl)c1)C1CCCCN1` [Ex 34, (3,5-Dichlorophenyl)[piperid-2-yl]methyl 1H-indazol-5-ylcarbamate((S,2S),(R,2R))] yielded an IC50 [1] of 2.91 µM.

For `O=C(Nc1ccc2[nH]ncc2c1)O[C@@H](c1cc(F)cc(Cl)c1)[C@@H]1CCCCN1` [Ex 35, (S)-(3-Chloro-5-fluorophenyl)[(2S)-piperid-2-yl]methyl 1H-indazol-5-ylcarbamate], the IC50 [1] was 3.1 µM, the IC50 [3] was 0.319 µM and the IC50 [4] was 1.05 µM.

Compound `CN1CCCCC1C(OC(=O)Nc1ccc2[nH]ncc2c1)c1cc(F)cc(Cl)c1` (stereo not drawn) [Ex 36, (3-Chloro-5-fluorophenyl)(1-methylpiperid-2-yl)methyl 1H-indazol-5-ylcarbamate] has an IC50 [1] of 10 µM and an IC50 [3] of 2.23 µM.

For `O=C(Nc1ccc2[nH]ncc2c1)O[C@H](c1ccc(Cl)c(Cl)c1)[C@H]1CCCCN1` [Ex 37, (R)-(3,4-Dichlorophenyl)[(2R)-piperid-2-yl]methyl 1H-indazol-5-ylcarbamate], the IC50 [1] was 2.45 µM and the IC50 [3] was 2.37 µM.

`O=C(Nc1ccc2[nH]ncc2c1)O[C@@H](c1ccc(Cl)c(Cl)c1)[C@@H]1CCCCN1` [Ex 38b, (S)-(3,4-Dichlorophenyl)[(2S)-piperid-2-yl]methyl 1H-indazol-5-ylcarbamate] gave an IC50 [2] of 1.79 µM, an IC50 [3] of 1.71 µM and an IC50 [4] of 2.4 µM.

In the case of `O=C(Nc1ccc2[nH]ncc2c1)O[C@@H](c1cccc(Br)c1)[C@@H]1CCCCN1` [Ex 46], the IC50 [2] is reported as 0.5 µM, the IC50 [3] is reported as 0.6 µM and the IC50 [4] is reported as 1.3 µM.
